Assays:
Test in all cases: relative viability (nuclei count vs DMSO), 5 days (fraction); higher = more cells survive
[1] = test system: H3255
Outline: (§1)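 The day after seeding in 1536-well plates, lung cancer cell lines were treated by pin tool with a single drug, or with a fixed anchor-drug dose together with five library-drug doses (not always all listed) in √10 steps. After 5 days, a combined fix-and-stain solution (final 0.05% Triton X-100, 1% formaldehyde, 1 ug/ml Hoechst) was added. Nuclei counted on 4× images gave relative viability as treated counts over vehicle counts, reported as the median of duplicate plates.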

[2] = test system: NCI-H650
Outline: as §1

[3] = test system: HCC-78
Outline: as §1

[4] = test system: NCI-H460
Outline: as §1

[5] = test system: PC-3 [JPC-3]
Outline: as §1

[6] = test system: 201T
Outline: as §1

[7] = test system: NCI-H1650
Outline: as §1

[8] = test system: NCI-H1651
Outline: as §1

[9] = test system: COR-L23
Outline: as §1

[10] = test system: NCI-H358
Outline: as §1

[11] = test system: HCC-366
Outline: as §1

[12] = test system: NCI-H1793
Outline: as §1

[13] = test system: NCI-H596
Outline: as §1

[14] = test system: NCI-H23
Outline: as §1

[15] = test system: NCI-H3122
Outline: as §1

[16] = test system: NCI-H2085
Outline: as §1

[17] = test system: LU99A
Outline: as §1

[18] = test system: NCI-H322M
Outline: as §1

[19] = test system: NCI-H522
Outline: as §1

[20] = test system: NCI-H2087
Outline: as §1

[21] = test system: SK-LU-1
Outline: as §1

[22] = test system: HARA
Outline: as §1

[23] = test system: NCI-H1755
Outline: as §1

Structure (SMILES): Cc1csc(=NC2CCCCC2)n1/N=C/c1ccc(O)c(O)c1O [MIM1] + N=C(N)NC(=N)NCCc1ccccc1 [Phenformin] (partner 250 µM)
- relative viability ([1]; first compound 0.2 µM): 0.33
- relative viability ([1]; first compound 0.6325 µM): 0.386
- relative viability ([1]; first compound 2 µM): 0.379
- relative viability ([1]; first compound 6.325 µM): 0.402
- relative viability ([1]; first compound 20 µM): 0.302
- relative viability ([2]; first compound 0.2 µM): 0.477
- relative viability ([2]; first compound 0.6325 µM): 0.389
- relative viability ([2]; first compound 2 µM): 0.474
- relative viability ([2]; first compound 6.325 µM): 0.412
- relative viability ([2]; first compound 20 µM): 0.241
- relative viability ([3]; first compound 0.2 µM): 0.81
- relative viability ([3]; first compound 0.6325 µM): 0.53
- relative viability ([3]; first compound 2 µM): 0.628
- relative viability ([3]; first compound 6.325 µM): 0.597
- relative viability ([3]; first compound 20 µM): 0.347
- relative viability ([4]; first compound 0.2 µM): 0.497
- relative viability ([4]; first compound 0.6325 µM): 0.531
- relative viability ([4]; first compound 2 µM): 0.387
- relative viability ([4]; first compound 6.325 µM): 0.172
- relative viability ([4]; first compound 20 µM): 0.0325
- relative viability ([5]; first compound 0.2 µM): 0.458
- relative viability ([5]; first compound 0.6325 µM): 0.488
- relative viability ([5]; first compound 2 µM): 0.517
- relative viability ([5]; first compound 6.325 µM): 0.469
- relative viability ([5]; first compound 20 µM): 0.361
- relative viability ([6]; first compound 0.2 µM): 0.456
- relative viability ([6]; first compound 0.6325 µM): 0.414
- relative viability ([6]; first compound 2 µM): 0.451
- relative viability ([6]; first compound 6.325 µM): 0.345
- relative viability ([6]; first compound 20 µM): 0.321
- relative viability ([7]; first compound 0.2 µM): 0.461
- relative viability ([7]; first compound 0.6325 µM): 0.406
- relative viability ([7]; first compound 2 µM): 0.412
- relative viability ([7]; first compound 6.325 µM): 0.155
- relative viability ([7]; first compound 20 µM): 0.164
- relative viability ([8]; first compound 0.2 µM): 0.351
- relative viability ([8]; first compound 0.6325 µM): 0.275
- relative viability ([8]; first compound 2 µM): 0.39
- relative viability ([8]; first compound 6.325 µM): 0.291
- relative viability ([8]; first compound 20 µM): 0.165
- relative viability ([9]; first compound 0.2 µM): 0.434
- relative viability ([9]; first compound 0.6325 µM): 0.437
- relative viability ([9]; first compound 2 µM): 0.37
- relative viability ([9]; first compound 6.325 µM): 0.373
- relative viability ([9]; first compound 20 µM): 0.187
- relative viability ([10]; first compound 0.2 µM): 0.373
- relative viability ([10]; first compound 0.6325 µM): 0.296
- relative viability ([10]; first compound 2 µM): 0.299
- relative viability ([10]; first compound 6.325 µM): 0.135
- relative viability ([10]; first compound 20 µM): 0.118
- relative viability ([11]; first compound 0.2 µM): 0.598
- relative viability ([11]; first compound 2 µM): 0.574
- relative viability ([11]; first compound 6.325 µM): 0.357
- relative viability ([11]; first compound 20 µM): 0.0831
- relative viability ([12]; first compound 0.2 µM): 0.389
- relative viability ([12]; first compound 2 µM): 0.351
- relative viability ([12]; first compound 6.325 µM): 0.373
- relative viability ([12]; first compound 20 µM): 0.302
- relative viability ([13]; first compound 0.2 µM): 0.705
- relative viability ([13]; first compound 0.6325 µM): 0.829
- relative viability ([13]; first compound 2 µM): 0.733
- relative viability ([13]; first compound 6.325 µM): 0.676
- relative viability ([13]; first compound 20 µM): 0.773
- relative viability ([14]; first compound 0.2 µM): 0.809
- relative viability ([14]; first compound 2 µM): 0.711
- relative viability ([14]; first compound 6.325 µM): 0.598
- relative viability ([14]; first compound 20 µM): 0.2
- relative viability ([15]; first compound 0.2 µM): 0.364
- relative viability ([15]; first compound 0.6325 µM): 0.371
- relative viability ([15]; first compound 2 µM): 0.355
- relative viability ([15]; first compound 6.325 µM): 0.195
- relative viability ([15]; first compound 20 µM): 0.143
- relative viability ([16]; first compound 0.2 µM): 0.739
- relative viability ([16]; first compound 0.6325 µM): 0.713
- relative viability ([16]; first compound 2 µM): 0.788
- relative viability ([16]; first compound 6.325 µM): 0.589
- relative viability ([16]; first compound 20 µM): 0.468
- relative viability ([17]; first compound 0.2 µM): 0.976
- relative viability ([17]; first compound 0.6325 µM): 0.753
- relative viability ([17]; first compound 2 µM): 0.819
- relative viability ([17]; first compound 6.325 µM): 0.702
- relative viability ([17]; first compound 20 µM): 0.325
- relative viability ([18]; first compound 0.2 µM): 0.905
- relative viability ([18]; first compound 0.6325 µM): 0.809
- relative viability ([18]; first compound 2 µM): 0.766
- relative viability ([18]; first compound 6.325 µM): 0.735
- relative viability ([18]; first compound 20 µM): 0.36
- relative viability ([19]; first compound 0.2 µM): 0.697
- relative viability ([19]; first compound 0.6325 µM): 0.665
- relative viability ([19]; first compound 2 µM): 0.672
- relative viability ([19]; first compound 6.325 µM): 0.52
- relative viability ([19]; first compound 20 µM): 0.571
- relative viability ([20]; first compound 0.2 µM): 0.457
- relative viability ([20]; first compound 0.6325 µM): 0.443
- relative viability ([20]; first compound 2 µM): 0.478
- relative viability ([20]; first compound 6.325 µM): 0.289
- relative viability ([20]; first compound 20 µM): 0.225
- relative viability ([21]; first compound 0.2 µM): 0.533
- relative viability ([21]; first compound 0.6325 µM): 0.579
- relative viability ([21]; first compound 2 µM): 0.617
- relative viability ([21]; first compound 6.325 µM): 0.405
- relative viability ([21]; first compound 20 µM): 0.393
- relative viability ([22]; first compound 0.2 µM): 0.455
- relative viability ([22]; first compound 2 µM): 0.49
- relative viability ([22]; first compound 6.325 µM): 0.16
- relative viability ([22]; first compound 20 µM): 0.0907
- relative viability ([23]; first compound 0.2 µM): 0.596
- relative viability ([23]; first compound 0.6325 µM): 0.597
- relative viability ([23]; first compound 2 µM): 0.621
- relative viability ([23]; first compound 6.325 µM): 0.506
- relative viability ([23]; first compound 20 µM): 0.226

— the supplement of paper PMC10307832
